According to paper PMC5962653 (Frontiers in Microbiology, 2018):
Values after ≈ are worked out from the molar mass of the structure shown. Like-named read-outs stand apart in the source and are kept apart here. Positions of bridges follow the written chain, without caps; N, C: chain ends. Non-standard residues stand in square brackets, D forms with d. Residues, ends and D or L forms follow the SMILES beside them. *: point of attachment. X1 = CC[C@H](C)CCCCC(=O)*; Dab = NCC[C@H](N)C(=O)O

How the values were obtained:
[1] = system: K. pneumoniae OXA-48 plus CTX-M-15 producer; format: cell-based, Klebsiella pneumoniae; settings: at 24 h; colistin 0.5 mg/L
Method: (§1) (2016)]. […] Tubes were incubated at 37°C, with shaking, and samples were taken at 0, 1, 3, 6, and 24 h, serially diluted and plated using a spiral platter (Eddy Jet, IUL S.A., Barcelona, Spain). Bacterial colonies were counted using an automatic counter (Flash & Go, IUL S.A., Barcelona, Spain) ([Pournaras et al., 2011]; [Souli et al., 2011]). Experiments were performed three times on separate occasions. […] Bactericidal activities of single antibiotics or combination were defined as a decrease ≥ 3 log10 cfu/mL from the starting inoculum ([Souli et al., 2009]). Studies were performed in triplicate.
(§2) The RIF concentration used for all strains was 2 mg/L. RIF, filled circles; CST, filled squares; combination of both antimicrobials, filled triangles.

[2] = system: K. pneumoniae VIM-1/DHA-1 producer; format: cell-based, Klebsiella pneumoniae; settings: colistin 2 mg/L (EUCAST breakpoint), rifampin 2 mg/L, alone or combined; inoculum 1 × 10^6 cfu/mL, 37°C, samples 0-24 h; three experiments
Method: as §1, §2

[3] = system: K. pneumoniae KPC-3 producer; format: cell-based, Klebsiella pneumoniae; settings: colistin 2 mg/L (EUCAST breakpoint), rifampin 2 mg/L, alone or combined; inoculum 1 × 10^6 cfu/mL, 37°C, samples 0-24 h; three experiments
Method: as §1, §2

[4] = system: K. pneumoniae VIM-1 producer; format: cell-based, Klebsiella pneumoniae
Method: as §1, §2

[5] = system: K. pneumoniae VIM-1 producer (colistin-susceptible); test: In vitro selection of colistin-resistant mutants (time-kill curves); format: cell-based, Klebsiella pneumoniae; settings: exposure at the MIC (0.5 mg/L) during 24 h in time-kill curves; sub-cultured twice antimicrobial free; increased from 0.5 mg/L
Method: (§3) MICs determinations of colistin and rifampin were carried out in triplicate.

[6] = system: K. pneumoniae OXA-48 plus CTX-M-15 producer (colistin-susceptible); test: as above; format: cell-based, Klebsiella pneumoniae; settings: exposure at the MIC (0.5 mg/L) during 24 h in time-kill curves; sub-cultured twice antimicrobial free; increased from 0.5 mg/L
Method: as §3

[7] = system: K. pneumoniae Kp29, KPC-3 producer; test: MIC by broth microdilution (agar dilution for fosfomycin); format: cell-based, Klebsiella pneumoniae; settings: for MIC: broth microdilution
Description: (§4) Four genetically unrelated clinical isolates of CP-Kp were studied: Kp07, a VIM-1 ST 1603 clone producer ([Miro et al., 2013]); Kp21, which co-produced VIM-1 and the acquired AmpC type beta-lactamase DHA-1 ST 11 clone ([Miro et al., 2013]); Kp28, co-producing OXA-48 ST11 clone and the extended spectrum beta-lactamase (ESBL) CTX-M-15 ([Oteo et al., 2015]); and Kp29, co-producing KPC-3 ST512 clone with the broad spectrum beta-lactamases TEM-1 and SHV-11 ([Lopez-Cerero et al., 2014]), thereinafter VIM-1, VIM-1/DHA-1, OXA-48 plus CTX-M-15, and KPC-3 producers, respectively. Identification of these isolates was confirmed by a Microflex LT-MALDI Biotyper mass spectrometer (Bruker Daltonics GmbH, Bremen, Germany). The presence of carbapenemase genes, and genes coding for other beta-lactamases was confirmed by PCR and sequencing as described previously. The absence of genetic relation among the isolates was confirmed by PFGE analysis of chromosomal restriction fragments obtained after XbaI cleavage following the criteria of [Tenover et al. (1995)]. […] The antibiotic susceptibility profiles are included in the Supplementary Information.
(§5) MICs of antibiotics were determined by broth microdilution as recommended by the [Clinical and Laboratory Standards Institute [CLSI] (2012)], using Mueller Hinton broth II (MHB) (Becton Dickinson & Co., Sparks, MD, United States) and agar dilution method for fosfomycin. MIC results were interpreted according to the [European Committee on Antimicrobial Susceptibility Testing [EUCAST] (2016)]^1 breakpoints. Studies were performed in triplicate.

[8] = system: K. pneumoniae Kp21, VIM-1/DHA-1 producer; test: as above; format: cell-based, Klebsiella pneumoniae; settings: for MIC: broth microdilution
Description: as §4, §5

[9] = system: K. pneumoniae Kp07, VIM-1 producer; test: as above; format: cell-based, Klebsiella pneumoniae; settings: for MIC: broth microdilution
Description: as §4, §5

[10] = system: K. pneumoniae Kp28, OXA-48 plus CTX-M-15 producer; test: as above; format: cell-based, Klebsiella pneumoniae; settings: for MIC: broth microdilution
Description: as §4, §5

[11] = system: K. pneumoniae VIM-1 strain; format: in vivo; settings: CMS 20 mg/kg/8 h ip, rifampin 25 mg/kg/6 h ip, alone or combined
Method: (§6) A previously described murine peritoneal sepsis model was used ([Parra Millan et al., 2016]). Briefly, groups of un-anesthetized C57BL/6 mice were infected by ip injection of 0.5 mL of the Minimal Lethal Dose (MLD) of each strain, corresponding to (log10 cfu/mL): 8.97, 8.94 9.35, and 8.38 for VIM-1, VIM-1/DHA-1, OXA-48 plus CTX-M-15, and KPC-3 strains, respectively. Treatments were initiated 4 h post-inoculation. […] Afterward, mice were treated and monitored for 72 h. […] Samples were extracted and processed immediately after the death of mice; the survivor mice were sacrificed (sodium thiopental) at the 72 h. Aseptic thoracotomies were carried out, and blood samples were obtained for qualitative blood cultures; results were expressed as positive (≥1 cfu present in the plate) or negative. Spleens were aseptically extracted, weighed, and homogenized in sterile saline (Stomacher 80; Tekmar Co., Cincinnati, OH, United States) before quantitative cultures (log10 cfu/g) in Columbia agar with 5% sheep blood plates.
(§7) Mortality and bacteremia rates are expressed as percentages and bacterial tissue concentrations (log10 cfu/g) as means ±SD. The two-tailed Fisher’s test, analysis of variance (ANOVA), and the Dunnet and Tukey post hoc tests were used. A P < 0.05 was considered significant. The SPSS v22.0 statistical package was used (SPSS Inc).

[12] = system: K. pneumoniae VIM-1/DHA-1 strain; format: in vivo; settings: CMS 20 mg/kg/8 h ip, rifampin 25 mg/kg/6 h ip, alone or combined
Method: as §6, §7

[13] = system: K. pneumoniae OXA-48 plus CTX-M-15 strain; format: in vivo
Method: A previously characterized murine pneumonia model was used ([Pachon-Ibanez et al., 2010]; [Docobo-Perez et al., 2012]; [Parra Millan et al., 2016]) with the OXA-48 plus CTX-M-15 strain, as OXA-48 is the most prevalent carbapenemase in Spain nowadays ([Palacios-Baena et al., 2016]). Anesthetized mice were infected intratracheally, using 50 μl of a final inoculum of 8.18 log10 cfu/mL. Therapies were initiated 4 h post-infection and treatment groups and dosages were the same as in the peritoneal sepsis model. Mice were treated and monitored over 72 h. After death or sacrifice of the mice at 72 h, blood and lungs samples were aseptically obtained and processed as detailed above.
as §7

[14] = mouse, in vivo
Method: Mice were housed in an individually ventilated cage system under specific pathogen-free conditions, and water and food supplied ad libitum. […] All procedures were performed under sodium thiopental (B. Braun Medical S.A., Spain) anesthesia, and all efforts were made to minimize suffering.
Blood samples were immediately centrifuged (4500 rpm, 15 min at 4°C), and serum samples stored at -80°C until the analysis. Both serum free and total antibiotic concentrations were measured using HPLC-tandem mass spectrometry (LC-MS/MS) ([Waters et al., 2008]; [Gobin et al., 2010]). Free fractions of the drugs were calculated as described previously ([Waters et al., 2008]; [Gonzalez et al., 2013]; [Cheah et al., 2015]).

[15] = system: K. pneumoniae OXA-48 plus CTX-M-15 strain; test: Murine peritoneal sepsis model; format: in vivo, C57BL/6 mice infected with Klebsiella pneumoniae; settings: CMS 20 mg/kg/8 h ip, rifampin 25 mg/kg/6 h ip, alone or combined
Method: as §6, §7

[16] = system: K. pneumoniae KPC-3 strain; format: in vivo, C57BL/6 mice infected with Klebsiella pneumoniae; settings: CMS 20 mg/kg/8 h ip, rifampin 25 mg/kg/6 h ip, alone or combined
Method: as §6, §7

[17] = Table 1, Mueller Hinton broth II, CLSI, triplicate
[18] = 72 h, from 4 h post-inoculation
[19] = qualitative blood cultures at death or 72 h

What does the source list for `CC[C@H](C)CCCCC(=O)N[C@@H](CCN)C(=O)N[C@H](C(=O)N[C@@H](CCN)C(=O)N[C@H]1CCNC(=O)[C@H]([C@@H](C)O)NC(=O)[C@H](CCN)NC(=O)[C@H](CCN)NC(=O)[C@H](CC(C)C)NC(=O)[C@@H](CC(C)C)NC(=O)[C@H](CCN)NC1=O)[C@@H](C)O` [Colistin, colistin] (X1-[Dab]T[Dab][Dab][Dab][dL]L[Dab][Dab]T; lactam 4-C (inferred); N-terminus assumed)?
Regrowth in time-kill curves [1]: important regrowth at 24 h; Bactericidal activity in time-kill curves (decrease ≥ 3 log10 cfu/mL from the starting inoculum) [2]: did not display any bactericidal activity; Bactericidal activity in time-kill curves (decrease ≥ 3 log10 cfu/mL from the starting inoculum) [3]: did not display any bactericidal activity; Regrowth in time-kill curves ([4]; at 24 h, colistin 0.5 mg/L): important regrowth at 24 h; Bactericidal activity in time-kill curves (decrease ≥ 3 log10 cfu/mL from the starting inoculum) ([4]; colistin 0.5 mg/L (MIC), rifampin 2 mg/L, alone or combined, inoculum 1 × 10^6 cfu/mL, 37°C, samples 0-24 h, three experiments): bactericidal at 3 h; Colistin MIC of colonies recovered after exposure to colistin [5]: > 8 µg/mL; Colistin MIC of colonies recovered after exposure to colistin [6]: > 8 µg/mL; MIC [7, 17]: 32 [^∗∗] mg/L; SIR, classification according to EUCAST definitions ([7]; supplement table, strain KPc29, EUCAST 2016 breakpoints, fosfomycin by agar dilution): R; MIC ([7]; supplement table, strain KPc29): > 32 mg/L; MIC [8, 17]: 64 [^∗∗] mg/L; SIR, classification according to EUCAST definitions ([8]; supplement table, strain KPc21, EUCAST 2016 breakpoints, fosfomycin by agar dilution): R; MIC ([8]; supplement table, strain KPc21): > 32 mg/L; MIC [9, 17]: 0.5 [^∗] mg/L; SIR, classification according to EUCAST definitions ([9]; supplement table, strain KPc07, EUCAST 2016 breakpoints, fosfomycin by agar dilution): S; MIC ([9]; supplement table, strain KPc07): 0.5 mg/L (≈ 0.428 µM); MIC [10, 17]: 0.5 [^∗] mg/L; SIR, classification according to EUCAST definitions ([10]; supplement table, strain KPc28, EUCAST 2016 breakpoints, fosfomycin by agar dilution): S; MIC ([10]; supplement table, strain KPc28): 0.5 mg/L (≈ 0.428 µM)

With colistimethate sodium [CMS] as the molecule, how does the “Mice mortality (%)” value [11, 18] read?
The value was 93.33%.

What about the “Log10 cfu/g spleen (mean ±SD)” value ([11]; ip MLD 8.97 log10 cfu/mL, from 4 h post-inoculation, 72 h, at death or 72 h, SD) of the same molecule?
Its value is 8.60 ± 0.30 log10 cfu/g.

What about the “Bacteremia (%)” value [11, 19] of the same molecule?
The value was 100%.

What about the “Mice mortality (%)” value [12, 18] of the same molecule?
The value was 100%.

And the “Log10 cfu/g spleen (mean ±SD)” value ([12]; ip MLD 8.94 log10 cfu/mL, from 4 h post-inoculation, 72 h, at death or 72 h, SD)?
Its value is 9.54 ± 0.34 log10 cfu/g.

What about the “Bacteremia (%)” value [12, 19] of the same molecule?
The value was 100%.

And the “Mice mortality (%)” value ([13]; 72 h, CMS 20 mg/kg/8 h ip, rifampin 25 mg/kg/6 h ip, alone or combined, from 4 h post-infection)?
The value was 26.70%.

And the Bacterial lung decrease ([13]; CMS monotherapy 20 mg/kg/8 h ip vs control group, not significant)?
The Bacterial lung decrease was 2.91 log10 cfu/g.

And the “Bacteremia (%)” value ([13]; blood cultures at death or 72 h, CMS 20 mg/kg/8 h ip, rifampin 25 mg/kg/6 h ip, alone or combined)?
Its value is 40%.

And the “Log10 cfu/g lung (mean ±SD)” value ([13]; intratracheal 50 μl of 8.18 log10 cfu/mL, CMS 20 mg/kg/8 h ip, rifampin 25 mg/kg/6 h ip, alone or combined, from 4 h post-infection, 72 h, at death or 72 h, SD)?
The value was 5.14 ± 3.78 log10 cfu/g.

And the “t1/2, free drug in serum” value [14]?
The value was 3.82 h.

And the “t1/2, total drug in serum” value [14]?
Its value is 3.82 h.

And the “Mice mortality (%)” value [15, 18]?
The value was 100%.

What about the “Log10 cfu/g spleen (mean ±SD)” value ([15]; ip MLD 9.35 log10 cfu/mL, from 4 h post-inoculation, 72 h, at death or 72 h, SD) of the same molecule?
Its value is 9.52 ± 0.55 log10 cfu/g.

And the “Bacteremia (%)” value [15, 19]?
The value was 100%.

And the “Mice mortality (%)” value [16, 18]?
The value was 75%.

And the “Log10 cfu/g spleen (mean ±SD)” value ([16]; ip MLD 8.38 log10 cfu/mL, from 4 h post-inoculation, 72 h, at death or 72 h, SD)?
Its value is 9.19 ± 1.85 log10 cfu/g.

What about the “Bacteremia (%)” value [16, 19] of the same molecule?
The value was 100%.
